Entries after “also recorded” stand apart in the source; their conditions may differ.
Experiments:
HBB locus in PSCs = assay: RNP/AAV6 gene targeting at HBB locus in PSCs; type: cell-based, human; details: UBC-GFP-bGHpA knock-in; 0.5 μM
Method: Gene targeting efficiency was measured by droplet digital PCR (ddPCR) and flow cytometry (for GFP) to measure the allelic targeting efficiency (FIG. 2B) and percentage of targeted cells (FIG. 2C) respectively. […] The treatment was carried out for 24 hours post gene targeting and the efficiency was calculated 1 week post gene targeting using ddPCR analysis.
First, we tested the treatment for editing the sickle cell disease (SCD) and cystic fibrosis (CF) mutations at HBB and CFTR loci respectively using the previously described Cas9 RNP and AAV6 donor reagents in WT PSC^71-73 (FIG. 19a-d).
PSC culture and genome editing. […] Gene targeting efficiency was analyzed at 4-6 days post-editing.
ddPCR analysis of targeted integration. Gene targeting efficiency for the knock-in of multi-kb sequences was measured through digital droplet PCR (ddPCR) analysis. […] After PCR, the droplets were analyzed using the QX200 Droplet Digital PCR reader (Biorad) and Quantasoft software was used to determine the number of copies of the target and reference DNA in the droplets. The allelic gene targeting efficiency was calculated as the percentage of target DNA copies relative to that of the reference. […]
ICE analysis for quantification of gene editing. […] Following PCR, the amplicons were detected on agarose gel and purified from the gel using GeneJet Gel Extraction Kit (Thermo Fisher Scientific, cat: K0692). […]

PI3K family of kinases = assay: Western blot, phosphorylation of AKT (Ser473) by PI3K family kinases in PSC; type: cell-based, human; details: 2 h
CCR5 locus in PSCs = assay: Single cell cloning of PSCs gene targeted at CCR5 locus; type: cell-based, human
Method: Allelic gene targeting efficiency was unaffected by pretreatment with AZD7648 with or without post treatment when compared to the corresponding controls.
For single cell cloning, gene targeted PSCs were plated at a density of 250 cells per well of a 6-well plate in mTeSR1 medium supplemented with 1× CloneR™2 ([…] technologies, cat: 100-0691) and incubated at 37° C. for 2 days. After 2 days, medium was switched to fresh mTeSR1 medium supplemented with 1× CloneR™2. 2 days later, the cells were switched to and maintained in mTeSR1 medium with daily media changes. At D7-D10, single cell colonies were picked by scraping and were then propagated individually. Gene targeting was assessed in single cell clones by ddPCR as mentioned above and by PCR amplifying the region spanning the knock-in to determine the frequency of mono-, bi-allelic and non-targeted clones.

HSPCs = assay: Colony forming units (CFU) assay and genotyping of CCR5 gene targeted HSPCs; type: cell-based, human; details: for colonies with bi-allelic HDR knock-in: untreated 9%
Method: Colony forming units assay and genotyping of clones. For colony forming units (CFU) assay, 250 to 500 HSPCs were plated in SmartDish 6-well plates ([…] Technologies, cat: 27370) containing MethoCult H4434 Classic ([…] Technologies, cat: 04444). After 14 days, colonies were counted and scored using STEMvision automated counter ([…] Technologies) to determine the number of BFU-E, CFU-M, CFU-GM, and CFU-GEMM colonies. To determine the ratio of monoallelic vs biallelic integration, individual colonies of each type were picked and genomic DNA was extracted with QE. ddPCR was used to determine the clones with mono- vs bi-allelic integration as mentioned. WT and INDEL frequencies in the clones were determined using ICE analysis.

T cells = assay: Viable cell count of CCR5 gene targeted T cells; type: cell-based, human
Method: (§1) (FIG. 34d). Next, we tested the effect of compound treatment when titrating down the AAV6 donor amounts for gene targeting at the CCR5 locus. […] For this, we assessed the CD19-CAR knock-in at the TRAC gene locus in T cells using a previously reported gene editing strategy^87 (FIG. 14c).
Cell viability measurement. MTT assay was used for measuring the gene edited PSC viability. […] After this incubation, MTT was removed, and cells were lysed using 100 μl of lysis buffer (0.1N HCl and 0.5% SDS in isopropanol). After lysis, absorbance was measured at 570 nm with 650 nm as the reference using a SpectraMax M3 plate reader (Molecular devices). The absorbance values were used to calculate the cell viability of gene edited cells as a percentage relative to the mock cells. […] Viable cell counts were represented as percentage relative to the mock or untreated cells as indicated.

[1] = test system: TRAC gene locus in T cells; details: 0.5 μM; AAV6 MOI 1250 and 2500
Description: as §1

human primary cells = assay: Gene targeting across different genomic loci and primary cell types (summary statements); type: cell-based; details: in some examples
Description: Nuclease-based genome editing can result in either site-specific insertions/deletions (INDELs) or targeted integrations depending on which pathway of natural DNA double-strand break repair is harnessed: non-homologous end-joining (NHEJ), microhomology mediated end-joining (MMEJ) or homology-directed repair (HDR).

In the case of `Cc1cc2ncnn2cc1Nc1ncc2c(n1)n(C1CCOCC1)c(=O)n2C` [AZD7648, 7-methyl-2-((7-methyl-[1,2,4]triazolo[l,5-a]pyridin-6-yl)amino)-9-(tetrahydro-2H-pyran-4-yl)-7,9-dihydro-8H-purin-8-one], the “effect on gene targeting vs untreated” value (HBB locus in PSCs) was “enhanced the gene targeting significantly; also recorded: significant improvement”, the “phosphorylation of AKT (Ser473)” value (PI3K family of kinases) was “did not affect the phosphorylation of AKT” and the “clones with bi-allelic knock-in” value (CCR5 locus in PSCs; 0.1 μM) was 60%. For the same compound, the “clones with bi-allelic knock-in” value (CCR5 locus in PSCs; 0.5 μM, untreated 30%) was 90%, the “total colony number and colony type distribution” value (HSPCs; 0.5 μM) was “did not cause further decrease in total colony number nor a change in the colony type distribution” and the “increase of colonies with bi-allelic HDR knock-in” value (HSPCs; BFU-E and CFU-GM, 0.5 μM) was “more than 7 fold”. The “colonies with bi-allelic HDR knock-in” value (HSPCs; BFU-E) was 67%, the “colonies with bi-allelic HDR knock-in” value (HSPCs; CFU-GM) was 78% and the viable cell count (T cells; 0.5 μM, different AAV6 MOIs) was “very little drop in viable cell count”. The “viable cell count vs mock and untreated controls” value (T cells; 72 h post-gene targeting, different concentrations) was “minimal drop in viable cell count”, the “increase in frequency of CD19-CAR+ T cells vs untreated” value [1] was 1.4 fold and the “increase in HDR” value (human primary cells) was “up to 50 fold”.

— patent US20250305004A1, “ENHANCING GENE TARGETING EFFICIENCY IN HUMAN CELLS WITH DNA-PK INHIBITOR TREATMENT” (The Board of Trustees of the Leland Stanford Junior …, priority 2022, published 2025)
